Measured values from patent US10543171B2, “Dermal drug delivery using amphiphilic dendron-coil micelles” (THE BOARD OF TRUSTEES OF THE UNIVERSITY OF ILLINOIS, priority 2013, dated 2020).
Entries after “also recorded” stand apart in the source; their conditions may differ.

Tests used:
[1] = molecular target: folate receptors (FR); settings: read-out: affinity for FR (KD); cited from earlier work
[2] = skin deposition of Cou6 from two-dye dendron micelles (CLSM, spectrofluorometer); assay type: in vitro ADME, mouse
Description: To prepare two-dye dendron micelles, two milligrams of acetylated, RHO-labeled PDC (PDC-RHO-Ac) was combined with 10 mg of unlabeled surface modified PDC in 1.2 mL DMF, and 2% (wt %) of Cou6 was added to the mixture. The materials were fully dissolved and mixed by brief vortexing followed by gentle shaking for 2 h. The Cou6-encapsulated, RHO-labeled dendron micelles were prepared by the dialysis method, and the solid material was obtained by lyophilization as described above.
SKH-1 hairless mouse skin was exposed to the Cou6-loaded micelles with different surfaces for 24 h in the Franz cell setup. The skin area that was exposed to the treatment was carefully collected, rinsed twice with ddH2O for 10 min and embedded into cryomolds (Tissue-Tek®, Sakura Finetek USA, Inc., Torrance, Calif.). Skin was cryosectioned into 80 um-thick slices and placed on anti-frost glass slides. The slides were then fixed by 10% neutral buffered formalin for 10 min at RT and rinsed with ddH2O. The skin slides were mounted with antiphotobleaching mounting media with DAPI (Vector Laboratory Inc., Burlingame, Calif.) and covered with glass cover slips. […]
After the two-dye micelle experiment, the fluorescence intensity in the donor and receiver solutions, as well as skin extracts were detected using a SoftMax Pro spectrofluorometer (Spectra MAX, Molecular Devices Inc., Sunnyvale, Calif.). […]

[3] = test system: MDA-MB-231 cells; assay: in vitro anti-proliferation assay (MTS) against MDA-MB-231; assay type: cell-based; settings: ER-negative; comparable drug concentrations; listed as free EDX
[4] = 25° C.; cited from earlier work

Nc1nc2ncc(CNc3ccc(C(=O)N[C@@H](CCC(=O)O)C(=O)O)cc3)nc2c(=O)[nH]1 [FA, folic acid]
Kd [1]: ~0.1 nM

CCN(CC)c1ccc2cc(-c3nc4ccccc4s3)c(=O)oc2c1 [free Cou6, Coumarin-6]
Cou6 delivered into skin (skin extract) ([2]; Cou6-encapsulated, RHO-labeled micelles or free Cou6 in ethanol, mouse skin): 26.48±2.51%
Cou6 distribution in skin layers (CLSM) ([2]; mouse skin cross-sections after Franz cell experiment): could not diffuse efficiently into the skin layers

CC/C(=C(\c1ccc(O)cc1)c1ccc(OCCNC)cc1)c1ccccc1 [EDX, 4-hydroxy-N-desmethyl tamoxifen]
anti-proliferative effect / cytotoxicity against MDA-MB-231 cells [3]: neither free EDX nor EDX-loaded micelles had significant cytotoxicity; also recorded: Neither free EDX nor EDX-loaded DMs exhibited significant anti-proliferative effect
partition coefficient (log P) [4]: 6.01
